Source: patent US20240102060A1, “ENZYMES AND METHODS FOR FERMENTATIVE PRODUCTION OF MONOTERPENE ESTERS” (ISOBIONICS B.V., priority 2020, published 2024)
Positions count from the first letter of the chain named.

B1: AAT9-2-a: inactive variant of the alcohol acyl transferase from Citrus bergamia, SEQ ID NO: 8 (protein, listed as Citrus bergamia)
chain: MKISVETISREMIKPSTPTPNHLRHYHFSYLDQTAPPLYMSLLYFYHLDDHKLVSNNNHLFINSLKSSLSNVLTKYYPLAGRVKNNYVDCNDEGVVFSEAKVSCLLSEIINELPSEFNKLHPFDQEKDVVSINGLPIAIQVNMFNCGSVAIAVMIFHKIADAASLITFTKNWAAAARGGSGNVFPEFVAARLFPPQDAGGSSGVSVDPRPKKIVLKKFLFEGPKITALRDKYGLDNGIYPTRVEALSAFIWSRLAASTRIKISPERPYMLVHLVNLRKRMEPPLPDDSFGNIIGAAVTVLEENDDDDRMVNKFRDAICKVDKDYLKVMKLEHSELTDLVITNGEIVDRGELGYCFFSSLCKFPVYEADFGLGKPMWVAWGRLPYKNIIHLIDTKSGDGIEAWIHLEEEVMAKFGNDQELLAYVSP
B2: AAT9-1-c: alcohol acyl transferase (AAT) from Citrus bergamia, variant AAT9-1-c, amino acid sequence SEQ ID NO: 2 (protein, listed as Citrus bergamia)
chain: MKIDVETISREMIKPSTPTPNHLRHYQFSHLDQIGPPFYISLLYFYHLDDDKLVSNNRHLFSDSLKSSLSNVLTKYYPLAGRIKNNYVDCNDEGVFFSEAKVSCQLSEIINEPEFPSEFKKLLPFDQEKDVVSFDSLAIAIQVNMFNCGNVAVAVMISHKIADGSSLSTFTKNWAAAARGESENVFPEFVAARLFPPEDAGGGSGTSFDPRPKKVVLKKFLFEGSKITALRDKYGFDNRIYPTRVEALSAFLWSRLAASNRIKVSSERPCMLIHAVNLRKRVEPQLPADSFGNLFAFAVTVLDENDDDGMVNKFRDAISKIDKDYLKAKKVEHSELIDLGITNGEKFGGGELGYCIISSLCKFPVYEADFGLGKPTWVAWGCFPYKNVIHFIDAKSGDGIEVWVHLEKEVMAKFENDQELLAYVST
B3: AAT9-1-a: inactive variant of the alcohol acyl transferase from Citrus bergamia, Tryptophan at position 371, SEQ ID NO: 6 (protein, listed as Citrus bergamia)
chain: B2 chain with G371W
B4: SEQ ID NO: 4: alcohol acyl transferase (AAT) from Lavandula angustifolia, internal designation 1461 (protein, listed as Lavandula angustifolia)
chain: MEIEILSKQSIKPSSLTPSQLRDFKLSFIDERIPPFYIPLILYYTFDEQTNVNQSEMSDRLKTSLADALAKFYPLAGRMKGQISVDCNDQGVLCTEAIANANVLDIVSSPDPLVLDKLIPYVTNGFVSSAQEQLAIQITSFNCGGISIGICFSHRIADASTLSSFIKYWAATACRDRISAVSPVFNSATLFPPRNTPDFTPNPTSPSVRPLAPNLVIKRFLFSSQSINAMKLEVSRNSRILNPTRVEVVTALIWNRCVVAKGIERSNRSVAYHTLNLRGKIPALSERSFGNLFQMIKVESEAETTWILLVEKLRSAFEGFDVKKQLLGEKGFENAKENFMEISQLLRAGNVEVFRFSSYCRLAVYEADFGWGKPVWVSNSCYRNKNCVFLFDSVGSRGGIEAWIVMSERDMERLEQDLEFKRFASF
B5: SEQ ID NO: 3: alcohol acyl transferase (AAT) from Lavandula angustifolia, internal designation 10056 (protein, listed as Lavandula angustifolia)
chain: MEIETRVISTEIIKPSSPTPKFLQNHRLSFLDQIAPPIFMPVVYFYESNTKFPNSQQSNHLKNSLSQVLTKFYPLAGRLVGNLYVDCDDGGVPFVEAEANFDLSQIITNPNPRNMSKFLPYNESHDFCMAVQATYFRCGGVAVGLLVSHKIADALSFFLFANFWSAVARSGEGGGGQPPKFDVATYFPPRDISGYEPSTGIMKEEITTRIFTFSDKKIAVLREKYAATGSGGDGDLPQRRPTRVEALSAFIWTRFINSTGVKSDPNKIYTVMHAVNLRTRTDPPLTEYHFGNISRLAIANPDVGESGVTDGGVELMQRVREAIKAVDGAYVADLKEGEKHLSLMREKMAQANKGELVSFSFTSLCRFPLYDADFGWGKPVWVGSAGFAYKNLVTFMDTRDGDGIEAWIHSRREDMEKFEVDLELQDFLSHDKSSLISLV

System: not listed separately
Experiment: Conversion of linalool to linalyl acetate by E. coli BL21-RIL expressing Citrus bergamia AAT variants, GC FID
Type: cell-based
Conditions: dodecane with 5 mM linalool (racemic), overnight at 18° C.
Protocol: To this end, the three different variants, and an empty pACYC-DUET-1, were introduced into chemical competent E. coli BL21-RIL (Stratagene), by heat shock transformation, and selected on LB-agar with 1% glucose and […] chloramphenicol. Transformants were transferred to 5 ml LB liquid medium with 1% glucose and 50 ug/ml chloramphenicol and grown overnight at 37° C. and 250 rpm.
(§1) 200 μL of those cultures was transferred to 20 mL of LB medium with the appropriate antibiotic in a 100 mL Erlenmeyer flask, and incubated at 37° C., 250 rpm until the A600 was 0.4 to 0.6. […] The next day, dodecane layer was recovered by centrifugation (10 min at 8000×g), diluted in ethyl acetate and analysed by GC FID.

**Q.** With B1 as the molecule, how does the “conversion of linalool to linalyl acetate” value (“conversion of linalool” below) read?
**A.** Its value is “could not be observed”.

**Q.** With B2 as the molecule, how does the “conversion of linalool” value read?
**A.** The value was “linalool was converted to linalyl acetate”.

**Q.** Which “conversion of linalool” value does the source give for B3 here?
**A.** Its value is “could not be observed”.

System: AAT9-1-c (SEQ ID NO: 2)
Experiment: Monoterpene and sesquiterpene alcohols tested in the presence of E. coli cells expressing AAT9-1-c
Type: cell-based
Conditions: E. coli cells expressing AAT9-1-c versus empty pACYCDUET-1
Protocol: as §1

**Q.** Which “conversion of the alcohol to its corresponding ester by AAT9-1-c” value (“conversion of the alcohol” below) does the source give for `CC(C)=CCC[C@](C)(O)[C@@H]1CC=C(C)CC1` [(−)-alpha-bisabolol] here?
**A.** Its value is “not observed to be converted”.

**Q.** For `CC1=CC[C@@H](C(C)(C)O)CC1` [alpha terpineol], which “conversion of the alcohol” value is on record?
**A.** The value was “corresponding esters could be observed”.

**Q.** With `C[C@@H]1CC[C@H]2C(C)(C)[C@H]3C[C@@]12CC[C@@]3(C)O` [cedrol] as the molecule, how does the “conversion of the alcohol” value read?
**A.** Its value is “not observed to be converted”.

**Q.** For `CC(C)=CCC/C(C)=C/CO` [geraniol], which “conversion of the alcohol” value is on record?
**A.** The value was “corresponding esters could be observed”.

**Q.** With `C=CC(C)(O)CCC=C(C)CCC=C(C)C` (stereo not drawn) [nerolidol] as the molecule, how does the “conversion of the alcohol” value read?
**A.** Its value is “not observed to be converted”.

**Q.** Which “conversion of the alcohol” value does the source give for `C[C@H]1CC[C@@]2(O)C(C)(C)[C@@H]3CC[C@@]2(C)[C@H]1C3` [patchoulol] here?
**A.** The value was “not observed to be converted”.

**Q.** Which “conversion of the alcohol” value does the source give for `CC1=CC(O)C2CC1C2(C)C` (stereo not drawn) [verbenol] here?
**A.** The value was “corresponding esters could be observed”.

System: not listed separately
Experiment: Initial test of Lavandula angustifolia alcohol acyl transferases on linalool
Conditions: not given

**Q.** With B4 as the molecule, how does the “linalool as a substrate” value read?
**A.** The value was “may not prefer linalool as a substrate”.

**Q.** Which “linalool as a substrate” value does the source give for B5 here?
**A.** Its value is “may not prefer linalool as a substrate”.
